Reference: ChEMBL document CHEMBL5331070, “Design, synthesis and evaluation of N3-substituted quinazolinone derivatives as potential Bloom's Syndrome protein (BLM) helicase inhibitor for sensitization treatment of colorectal cancer” (Eur J Med Chem, 2023)
pIC50: −log10 of the molar value. Values belong to the compound of their own block, whether it stands above or below them. Calls of active or inactive are those of the source. The rule behind the calls is not given here.

Experiments:
[1] = target: T1, RecQ-like DNA helicase BLM (Homo sapiens, UniProt P54132); test: Displacement of thiazole orange from His-tagged BLM (unknown origin) expressed in Escherichia coli BL21 (DE3) assessed as decrease in fluorescence intensity at 10 uM by fluorescence based analysis
T1 sequence (P54132 whole entry): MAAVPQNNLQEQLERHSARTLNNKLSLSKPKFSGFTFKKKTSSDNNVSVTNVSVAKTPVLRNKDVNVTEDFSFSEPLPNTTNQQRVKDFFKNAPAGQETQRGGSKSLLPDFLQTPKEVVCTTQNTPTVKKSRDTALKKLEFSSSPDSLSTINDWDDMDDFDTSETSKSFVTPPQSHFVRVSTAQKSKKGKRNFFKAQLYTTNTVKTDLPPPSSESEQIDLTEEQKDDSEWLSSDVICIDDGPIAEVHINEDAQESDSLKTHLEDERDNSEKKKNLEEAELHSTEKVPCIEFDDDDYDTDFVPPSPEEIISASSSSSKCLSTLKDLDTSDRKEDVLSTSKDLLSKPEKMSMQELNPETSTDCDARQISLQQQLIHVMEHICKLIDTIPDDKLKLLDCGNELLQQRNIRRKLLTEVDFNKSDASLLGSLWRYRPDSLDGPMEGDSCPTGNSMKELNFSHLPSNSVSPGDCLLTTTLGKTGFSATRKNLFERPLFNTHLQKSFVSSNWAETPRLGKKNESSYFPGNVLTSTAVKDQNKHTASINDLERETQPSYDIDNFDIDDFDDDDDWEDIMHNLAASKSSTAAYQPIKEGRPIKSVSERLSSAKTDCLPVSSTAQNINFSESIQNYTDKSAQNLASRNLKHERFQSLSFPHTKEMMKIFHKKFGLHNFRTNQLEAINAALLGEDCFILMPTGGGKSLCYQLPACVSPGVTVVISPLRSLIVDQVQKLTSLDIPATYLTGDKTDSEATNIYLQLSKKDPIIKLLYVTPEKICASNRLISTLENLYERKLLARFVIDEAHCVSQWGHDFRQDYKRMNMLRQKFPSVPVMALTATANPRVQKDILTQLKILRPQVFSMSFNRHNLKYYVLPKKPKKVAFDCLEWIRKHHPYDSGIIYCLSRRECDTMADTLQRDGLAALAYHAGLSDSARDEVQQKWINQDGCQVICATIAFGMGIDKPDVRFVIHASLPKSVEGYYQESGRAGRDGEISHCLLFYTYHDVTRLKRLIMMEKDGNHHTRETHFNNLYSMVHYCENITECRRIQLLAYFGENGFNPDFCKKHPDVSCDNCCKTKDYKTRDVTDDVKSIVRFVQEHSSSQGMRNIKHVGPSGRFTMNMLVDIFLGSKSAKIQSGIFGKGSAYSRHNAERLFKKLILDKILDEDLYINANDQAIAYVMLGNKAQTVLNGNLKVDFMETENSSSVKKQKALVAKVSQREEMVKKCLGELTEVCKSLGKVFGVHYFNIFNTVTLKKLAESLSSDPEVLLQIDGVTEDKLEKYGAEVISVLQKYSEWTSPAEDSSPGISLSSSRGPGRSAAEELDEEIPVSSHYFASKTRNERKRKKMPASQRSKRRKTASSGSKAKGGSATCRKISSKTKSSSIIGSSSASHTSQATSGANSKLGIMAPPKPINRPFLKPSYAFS

[2] = target: T1, RecQ-like DNA helicase BLM; test: Inhibition of His-tagged BLM (unknown origin) expressed in Escherichia coli BL21 (DE3) using 5'-biotin-labeled duplex forked-DNA as substrate incubated for 10 mins followed by substrate addition measured after 30 mins in presence of ATP by electrophoretic mobility shift assay
[3] = target: T1, RecQ-like DNA helicase BLM; test: Displacement of thiazole orange from His-tagged BLM (unknown origin) expressed in Escherichia coli BL21 (DE3) assessed as decrease in fluorescence intensity by fluorescence based analysis
RKO [4] = test: Cytotoxicity against human RKO cells assessed as inhibition of cell growth measured after 48 hrs by MTT assay; format: functional, cell-based
SW480 [5] = test: Cytotoxicity against human SW480 cells assessed as inhibition of cell growth measured after 48 hrs by MTT assay; format: functional, cell-based; settings: SW480, 48 h
[6] = Disruption of BLM/5'-biotin-labeled duplex forked-DNA interaction incubated for 30 mins by ELISA assay
HCT-116 [7] = test: Cytotoxicity against human HCT-116 cells assessed as inhibition of cell growth measured after 48 hrs by MTT assay; format: functional, cell-based; settings: HCT-116, 48 h
[8] = target: T1, RecQ-like DNA helicase BLM; test: Inhibition of BLM (unknown origin) assessed as ATP hydrolysis using 5'-biotin-labeled duplex forked-DNA as substrate incubated for 10 mins in presence of ATP by luciferase assay
[9] = Cytotoxicity against human NCM460 cells assessed as inhibition of cell growth measured after 48 hrs by MTT assay; format: toxicity, cell-based
RKO [10] = test: Inhibition of colony formation in human RKO cells incubated for 10 days by crystal violet staining based assay; format: functional, cell-based; settings: 240 h
HCT-116 [11] = test: Inhibition of colony formation in human HCT-116 cells incubated for 10 days by crystal violet staining based assay; format: functional, cell-based; settings: HCT-116, 240 h
SW480 [12] = test: Induction of DNA damage in human SW480 cells assessed as increase in gamma-H2AX level at above 0.3 uM incubated for 48 hrs by Western blotting analysis; format: functional, cell-based
HCT-116 [13] = test: Induction of cell cycle arrest in human HCT-116 cells assessed as accumulation of cells at S phase at 4 uM measured after 48 hrs by propidium iodide staining based high-content screening method; format: functional
HCT-116 [14] = test: Inhibition of cell invasion in human HCT-116 cells incubated for 48 hrs by crystal violet staining based transwell assay; format: functional; settings: HCT-116, 48 h
HCT-116 [15] = test: Induction of apoptosis in human HCT-116 cells assessed as apoptotic cells at 1 uM measured after 48 hrs by Annexin V-FITC/PI staining based flow cytometry (reference value: 14%); format: functional
SW480 [16] = test: Induction of apoptosis in human SW480 cells assessed as apoptotic cells at 1 uM measured after 48 hrs by Annexin V-FITC/PI staining based flow cytometry (reference value: 16%); format: functional
HCT-116 [17] = test: Antiproliferative activity against wild type human HCT-116 cells assessed as inhibition of cell growth incubated for 48 hrs by propidium iodide staining based high-content imaging analysis; format: functional; settings: HCT-116, 48 h
SW480 [18] = test: Inhibition of colony formation in human SW480 cells incubated for 10 days by crystal violet staining based assay; format: functional, cell-based; settings: SW480, 240 h
RKO [19] = test: Induction of cell cycle arrest in human RKO cells assessed as accumulation of cells at G2/M phase at 4 uM measured after 48 hrs by propidium iodide staining based high-content screening method; format: functional
[20] = target: T1, RecQ-like DNA helicase BLM; test: Inhibition of BLM in human HCT-116 cells co-transfected with I-SceI assessed as effect on HRR level by measuring GFP expression at 1 to 3 uM incubated for 48 hrs by propidium iodide staining based high-content imaging analysis; format: cell-based; settings: dose 1-3 µM
HCT-116 [21] = test: Induction of DNA damage in human HCT-116 cells assessed as increase in gamma-H2AX level at above 0.3 uM incubated for 48 hrs by Western blotting analysis; format: functional, cell-based
SW480 [22] = test: Induction of cell cycle arrest in human SW480 cells assessed as accumulation of cells at S phase at 4 uM measured after 48 hrs by propidium iodide staining based high-content screening method; format: functional
HCT-116 [23] = test: Induction of DNA damage in human HCT-116 cells at 3 uM incubated for 48 hrs by DAPI staining based laser scanning confocal microscopic analysis; format: functional, cell-based
RKO [24] = test: Induction of DNA damage in human RKO cells assessed as increase in gamma-H2AX level at above 0.3 uM incubated for 48 hrs by Western blotting analysis; format: functional, cell-based
HCT-116 [25] = test: Induction of cell cycle arrest in human HCT-116 cells assessed as accumulation of cells at G2/M phase at 4 uM measured after 48 hrs by propidium iodide staining based high-content screening method; format: functional
[26] = target: T1, RecQ-like DNA helicase BLM; test: Inhibition of BLM in human HCT-116 cells co-transfected with DR-GFP and I-SceI plasmid assessed as decease in recruitment of BLM to DSB site at 1 to 2 uM incubated for 48 hrs by qPCR analysis; format: cell-based; settings: dose 1-2 µM
RKO [27] = test: Induction of DNA damage in human RKO cells at 3 uM incubated for 48 hrs by DAPI staining based laser scanning confocal microscopic analysis; format: functional, cell-based
SW480 [28] = test: Induction of cell cycle arrest in human SW480 cells assessed as accumulation of cells at G2/M phase at 4 uM measured after 48 hrs by propidium iodide staining based high-content screening method; format: functional
SW480 [29] = test: Induction of DNA damage in human SW480 cells at 3 uM incubated for 48 hrs by DAPI staining based laser scanning confocal microscopic analysis; format: functional, cell-based

- Activity [1]: inactive
- pIC50 [2]: 4.49
SMILES: CCN(CC)CCCNc1cc2nc(/C=C/c3ccc(C(C)C)cc3)n(CCCO)c(=O)c2cc1F

- Activity [1]: inactive
- pIC50 [2]: 5.01
SMILES: CCN(CC)CCCNc1cc2nc(/C=C/c3ccc(C(C)C)cc3)n(Cc3ccccc3Cl)c(=O)c2cc1F

- Activity [1]: inactive
- pIC50 [2]: 5.28
SMILES: CCN(CC)CCCNc1cc2nc(/C=C/c3ccc(C(C)C)cc3)n(Cc3ccccc3C(F)(F)F)c(=O)c2cc1F

- pIC50 [3]: < 5.00
- pIC50 [2]: < 4.49
SMILES: CCN(CC)CCCNc1cc2nc(/C=C/c3ccc(C(C)C)cc3)n(CCC#N)c(=O)c2cc1F

- Activity [1]: inactive
- pIC50 [2]: 5.04
SMILES: CCN(CC)CCCNc1cc2nc(/C=C/c3ccc(C(C)C)cc3)n(CCC(C)C)c(=O)c2cc1F

- pIC50 [3]: < 5.00
- pIC50 [2]: 5.60
- pIC50 [6]: 5.35
- pIC50 [8]: < 4.49
SMILES: CCN(CC)CCCNc1cc2nc(/C=C/c3ccc(C(C)C)cc3)n(CCN(C)C)c(=O)c2cc1F
- pIC50 (RKO [4]): 4.97
- pIC50 (SW480 [5]): 5.00
- pIC50 (HCT-116 [7]): 5.52
- IC50 at 48 h [9]: > 25 µM

- Activity [1]: inactive
- pIC50 [2]: 5.28
SMILES: CCN(CC)CCCNc1cc2nc(/C=C/c3ccc(C(C)C)cc3)n(Cc3ccccc3F)c(=O)c2cc1F

- pIC50 [3]: < 5.00
- pIC50 [2]: 5.28
SMILES: CCN(CC)CCCNc1cc2nc(/C=C/c3ccc(C(C)C)cc3)n(CCCOC(C)C)c(=O)c2cc1F

- Activity [1]: inactive
- pIC50 [2]: 5.10
SMILES: C=C(C)Cn1c(/C=C/c2ccc(C(C)C)cc2)nc2cc(NCCCN(CC)CC)c(F)cc2c1=O

- pIC50 [3]: < 5.00
- pIC50 [2]: 5.40
SMILES: CCN(CC)CCCNc1cc2nc(/C=C/c3ccc(C(C)C)cc3)n(CCc3ccccc3)c(=O)c2cc1F

- Activity [1]: inactive
- pIC50 [2]: < 4.49
SMILES: CCN(CC)CCCNc1cc2nc(/C=C/c3ccc(C(C)C)cc3)n(CCCN(CC)CC)c(=O)c2cc1F

- Activity [1]: inactive
- pIC50 [2]: 5.08
SMILES: CCN(CC)CCCNc1cc2nc(/C=C/c3ccc(C(C)C)cc3)n(CC3CC3)c(=O)c2cc1F

- Activity [1]: inactive
- pIC50 [2]: 5.37
SMILES: CCN(CC)CCCNc1cc2nc(/C=C/c3ccc(C(C)C)cc3)n(CC#N)c(=O)c2cc1F

- Activity [1]: inactive
- pIC50 [2]: 5.89
- pIC50 [6]: 5.31
- pIC50 [8]: < 4.49
SMILES: CCN(CC)CCCNc1cc2nc(/C=C/c3ccc(C(C)C)cc3)n(CCCCl)c(=O)c2cc1F
- pIC50 (RKO [4]): 4.91
- pIC50 (SW480 [5]): 5.46
- pIC50 (HCT-116 [7]): 5.28
- IC50 at 48 h [9]: 9.6 µM

- pIC50 [3]: < 5.00
- pIC50 [2]: < 4.49
SMILES: CCN(CC)CCCNc1cc2nc(/C=C/c3ccc(C(C)C)cc3)n(CCCN3CCOCC3)c(=O)c2cc1F

- Activity [1]: inactive
- pIC50 [2]: < 4.49
SMILES: CCN(CC)CCCNc1cc2nc(/C=C/c3ccc(C(C)C)cc3)n(CC3CCOCC3)c(=O)c2cc1F

- pIC50 [3]: < 5.00
- pIC50 [2]: 5.24
SMILES: CCN(CC)CCCNc1cc2nc(/C=C/c3ccc(C(C)C)cc3)n(Cc3ccccc3)c(=O)c2cc1F

- Activity [1]: inactive
- pIC50 [2]: 5.30
SMILES: CCN(CC)CCCNc1cc2nc(/C=C/c3ccc(C(C)C)cc3)n(Cc3ccc(OC)cc3)c(=O)c2cc1F

- Activity [1]: inactive
- pIC50 [2]: 5.54
SMILES: CCN(CC)CCCNc1cc2nc(/C=C/c3ccc(C(C)C)cc3)n(Cc3ccccc3Br)c(=O)c2cc1F

- pIC50 [3]: < 5.00
- pIC50 [2]: < 4.49
SMILES: CCN(CC)CCCNc1cc2nc(/C=C/c3ccc(C(C)C)cc3)n(CCOC(C)=O)c(=O)c2cc1F

- Activity [1]: inactive
- pIC50 [2]: 5.32
SMILES: CCCCn1c(/C=C/c2ccc(C(C)C)cc2)nc2cc(NCCCN(CC)CC)c(F)cc2c1=O

- pIC50 (RKO [10]): 6.15
- pIC50 (HCT-116 [11]): 6.22
- pIC50 (HCT-116 [14]): 6.00
- Activity [1]: inactive
- pIC50 (HCT-116 [17]): 5.72
- pIC50 (SW480 [18]): 6.22
- inhibition [20]: Active
- pIC50 [2]: 6.10
- pIC50 [6]: 5.64
- pIC50 [8]: < 4.49
- inhibition [26]: Active
SMILES: CCN(CC)CCCNc1cc2nc(/C=C/c3ccc(C(C)C)cc3)n(Cc3ccc(Br)cc3)c(=O)c2cc1F
- Activity (SW480 [12]): Active
- Activity (HCT-116 [13]): 54%
- pIC50 (RKO [4]): 5.27
- Activity (HCT-116 [15]): 35%
- Activity (SW480 [16]): 68%
- Activity (RKO [19]): 25%
- pIC50 (SW480 [5]): 5.66
- Activity (HCT-116 [21]): Active
- Activity (SW480 [22]): 58%
- pIC50 (HCT-116 [7]): 5.55
- Activity (HCT-116 [23]): Active
- Activity (RKO [24]): Active
- Activity (HCT-116 [25]): 20%
- Activity (RKO [27]): Active
- Activity (SW480 [28]): 19%
- IC50 at 48 h [9]: 15.6 µM
- Activity (SW480 [29]): Active

- Activity [1]: inactive
- pIC50 [2]: 5.43
SMILES: CCCCCn1c(/C=C/c2ccc(C(C)C)cc2)nc2cc(NCCCN(CC)CC)c(F)cc2c1=O

- Activity [1]: inactive
- pIC50 [2]: 5.64
- pIC50 [6]: 5.00
- pIC50 [8]: < 4.49
SMILES: CCN(CC)CCCNc1cc2nc(/C=C/c3ccc(C(C)C)cc3)n(Cc3cccc(Br)c3)c(=O)c2cc1F
- pIC50 (RKO [4]): 5.24
- pIC50 (SW480 [5]): 5.72
- pIC50 (HCT-116 [7]): 5.54
- IC50 at 48 h [9]: 15.3 µM

- pIC50 [3]: < 5.00
- pIC50 [2]: < 4.49
SMILES: CCCn1c(/C=C/c2ccc(C(C)C)cc2)nc2cc(NCCCN(CC)CC)c(F)cc2c1=O

- pIC50 [3]: < 5.00
- pIC50 [2]: 5.29
- pIC50 [6]: 5.14
- pIC50 [8]: < 4.49
SMILES: CCN(CC)CCCNc1cc2nc(/C=C/c3ccc(C(C)C)cc3)n(CCCl)c(=O)c2cc1F
- pIC50 (RKO [4]): 5.25
- pIC50 (SW480 [5]): 5.35
- pIC50 (HCT-116 [7]): 5.25
- IC50 at 48 h [9]: 15 µM
